In patent publication US10227344B2, “CK2 inhibitors, compositions and methods thereof” (Polaris Pharmaceuticals, Inc., priority 2016, dated 2019):
pKi: −log10 of the molar value. Counter-ions that a name gives are not always drawn.

Key:
purified CK2α enzyme = purified CK2α enzyme (Homo sapiens, UniProt P68400); assay: CK2 Protein Kinase Inhibition Assay (coupled PK/LDH assay); type: biochemical; details: CK2 enzyme 25 nM, 100 μM ATP, 37° C., Morrison equation
Outline: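 Purified CK2α at 25 nM final, 1.5 mM peptide substrate, 100 μM ATP, pH 8.25 Tris buffer; compounds pre-incubated 10 min at 37° C. ADP coupled via PK/LDH to NADH loss at 340 nm over 30 min, 37° C. Ki from rate versus concentration by Morrison equation, triplicate points.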

Sequence of purified CK2α enzyme (P68400 whole entry): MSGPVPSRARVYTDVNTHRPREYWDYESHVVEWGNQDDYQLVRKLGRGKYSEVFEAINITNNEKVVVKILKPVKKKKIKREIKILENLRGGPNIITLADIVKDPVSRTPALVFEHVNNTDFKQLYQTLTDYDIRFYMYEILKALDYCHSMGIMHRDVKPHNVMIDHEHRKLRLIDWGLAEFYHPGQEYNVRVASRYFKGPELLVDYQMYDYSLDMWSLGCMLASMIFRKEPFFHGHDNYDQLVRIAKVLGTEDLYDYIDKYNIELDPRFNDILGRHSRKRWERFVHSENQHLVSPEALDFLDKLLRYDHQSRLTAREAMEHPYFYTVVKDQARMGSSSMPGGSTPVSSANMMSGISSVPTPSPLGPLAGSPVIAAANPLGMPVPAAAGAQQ

| Compound | melting point | pKi (purified CK2α enzyme) |
| --- | --- | --- |
| CN(CC1(N)CC1)c1ccc(Nc2cc(NC3CC3)n3ncc(C#N)c3n2)cc1C[S+](C)[O-] (racemic) (as salt: trifluoroacetic acid salt) [Example 65, (±)-5-((4-(((1-Aminocyclopropyl)methyl)(methyl)amino)-3-((methylsulfinyl)methyl)phenyl)amino)-7-(cyclopropylamino)pyrazolo[1,5-a]pyrimidine-3-carbonitrile mono trifluoroacetic acid salt] | 126 to 130 °C |  |
| C[S+]([O-])Cc1cc(Nc2cc(NC3CC3)n3ncc(C#N)c3n2)ccc1OC(F)F (racemic) [Example 19, (±)-7-(Cyclopropylamino)-5-((4-(difluoromethoxy)-3-((methylsulfinyl)methyl)phenyl)amino)pyrazolo[1,5-a]pyrimidine-3-carbonitrile] | 233 to 235 °C | > 8.60 |
| CN(C)c1ccc(Nc2cc(NC3CC3)n3ncc(C#N)c3n2)cc1C[S+](C)[O-] (racemic) [Example 33, (±)-7-(Cyclopropylamino)-5-((4-(dimethylamino)-3-((methylsulfinyl)methyl)phenyl)amino)pyrazolo[1,5-a]pyrimidine-3-carbonitrile] | 229 to 233 °C | > 8.60 |
| C[S+]([O-])Cc1cc(Nc2cc(NC3CC3)n3ncc(C#N)c3n2)ccc1N1CCC1 (racemic) [Example 37, (±)-5-((4-(Azetidin-1-yl)-3-((methylsulfinyl)methyl)phenyl)amino)-7-(cyclopropylamino)pyrazolo[1,5-a]pyrimidine-3-carbonitrile] | 204 to 207 °C | > 8.60 |
| CS(=O)(=O)Cc1cc(Nc2cc(NC3CC3)n3ncc(C#N)c3n2)ccc1OC(F)F [Example 20, 7-(Cyclopropylamino)-5-((4-(difluoromethoxy)-3-((methylsulfonyl)methyl)phenyl)amino)pyrazolo[1,5-a]pyrimidine-3-carbonitrile] | > 260 °C | > 8.60 |
| CS(=O)(=O)Cc1cc(Nc2cc(NC3CC3)n3ncc(C#N)c3n2)ccc1OCCN.Cl [Example 26, 5-((4-(2-aminoethoxy)-3-((methylsulfonyl)methyl)phenyl)amino)-7-(cyclopropylamino)pyrazolo[1,5-a]pyrimidine-3-carbonitrile hydrochloric acid salt] | 238 to 240 °C | 8.00 to 8.60 |

Now from value to compound:

| melting point | pKi (purified CK2α enzyme) | Compound |
| --- | --- | --- |
| 119 to 123 °C |  | CC(CCN)c1ccc(Nc2cc(NC3CC3)n3ncc(C#N)c3n2)cc1C[S+](C)[O-] (racemic) (as salt: trifluoroacetic acid salt) [Example 64, (±)-5-((4-(R,S)-4-Aminobutan-2-yl)-3-((methylsulfinyl)methyl)phenyl)amino)-7-(cyclopropylamino)pyrazolo[1,5-a]pyrimidine-3-carbonitrile mono trifluoroacetic acid salt] |
| 141 to 145 °C |  | CN(CC(C)(C)N)c1ccc(Nc2cc(NC3CC3)n3ncc(C#N)c3n2)cc1C[S+](C)[O-] (racemic) (as salt: trifluoroacetic acid salt) [Example 67, (±)-5-((4-((2-Amino-2-methylpropyl)(methyl)amino)-3-((methylsulfinyl)methyl)phenyl)amino)-7-(cyclopropylamino)pyrazolo[1,5-a]pyrimidine-3-carbonitrile mono trifluoroacetic acid salt] |
| 227 to 229 °C | > 8.60 | COc1ccc(Nc2cc(NC3CC3)n3ncc(C#N)c3n2)cc1C[S+](C)[O-] (racemic) [Example 17, (±)-7-(Cyclopropylamino)-5-((4-methoxy-3-((methylsulfinyl)methyl)phenyl)amino)pyrazolo[1,5-a]pyrimidine-3-carbonitrile] |
| 206 to 208 °C | > 8.60 | C[S+]([O-])Cc1cc(Nc2cc(NC3CC3)n3ncc(C#N)c3n2)ccc1OCCN (racemic) [Example 31, (±)-5-((4-(2-aminoethoxy)-3-((methylsulfinyl)methyl)phenyl)amino)-7-(cyclopropylamino)pyrazolo[1,5-a]pyrimidine-3-carbonitrile] |
| 126 to 130 °C | 8.00 to 8.60 | C[S+]([O-])Cc1cc(Nc2cc(NC3CC3)n3ncc(C#N)c3n2)ccc1C1=CCCNC1.O=C(O)C(F)(F)F (racemic) [Example 53, (±)-7-(cyclopropylamino)-5-((3-((methylsulfinyl)methyl)-4-(1,2,5,6-tetrahydropyridin-3-yl)phenyl)amino)pyrazolo[1,5-a]pyrimidine-3-carbonitrile mono trifluoroacetic acid salt] |
| 233 to 235 °C | > 8.60 | COc1ccc(Nc2cc(NC3CC3)n3ncc(C#N)c3n2)cc1CS(C)(=O)=O [Example 18, 7-(Cyclopropylamino)-5-((4-methoxy-3-((methylsulfonyl)methyl)phenyl)amino)pyrazolo[1,5-a]pyrimidine-3-carbonitrile] |
| 220 to 222 °C | > 8.60 | CS(=O)(=O)Cc1cc(Nc2cc(NC3CC3)n3ncc(C#N)c3n2)ccc1N1CCC1 [Example 32, 5-((4-(Azetidin-1-yl)-3-((methylsulfonyl)methyl)phenyl)amino)-7-(cyclopropylamino)pyrazolo[1,5-a]pyrimidine-3-carbonitrile] |
